Consider eleven compounds from US20050042316A1, “Attractants for moths” (priority 2001, published 2005).

Molecules are shown by their SMILES.

One assay has as its system H. armigera moths. The assay is described as follows: two-choice olfactometer, moths entering the test chamber. Format: in vivo, Helicoverpa armigera. As to conditions: for attractiveness in the olfactometer: blend complexity studies, FIG. 8; for optimum concentration in the olfactometer: formulated in Sirene base, FIG. 6. An excerpt:
The design of our olfactometer (FIG. 1) has been described by Gregg et al. (1998) and is similar to that of Beerwinkle et al. (1996). The olfactometer is a two-choice system in which moths choose between two airstreams. One carries either a bouquet (about 200 g) of freshly cut plant stems with their bases in a flask of water, or plant volatiles formulated and presented as described below (the test chamber). The other carries clean air (the control chamber). Each run normally uses 50 moths, and runs are normally replicated three times for each sex and each attractant. Thus, olfactometer data points are usually each based on the responses of 150 moths. Moths are laboratory-reared, unmated and aged 1-4 (usually 2-3) days. We use two criteria for attractiveness, the test % (percentage of the total 150 moths which enter the test chamber), and success rate (number entering the test chamber relative to those entering the control chamber). The former is our primary criterion, and is the one presented here. Data are analysed using Zar's procedure for multiple comparison of proportions. With N=150, the minimum significant difference between two percentages using-this procedure is about 8%.
For testing single chemicals in the olfactometer early in the project, we dissolve the synthetic chemical in canola oil at a concentration of 10%. 200 μl of this is absorbed into a cotton dental wick which is placed in the test airstream of the olfactometer. These lures are changed every 2 h during olfactometer runs. Later tests of single chemicals to determine the effects of varying concentration are done using Sirene formulations, as discussed below.
For testing chemical blends in the olfactometer and in field trapping experiments, we are formulating in Sirene, a mixture of anti-oxidants and UV protectants which was developed by Novartis for attract-and-kill of several moth species using pheromones, and for which IPM Technologies Ltd have worldwide marketing and development rights. Chemicals are mixed into Sirene in the barrel of a syringe using a slow (4 rpm) broad-bladed propeller, which stirs the highly viscous material for 3 h. Formulations are then stored at 40 C in the sealed syringe for periods of up to 2 weeks. Sirene formulations are tested in the olfactometer by placing about 100 mg on a horizontal square (1×1 cm) of plastic (Corflute®), which is then placed on a pin in the test airstream of the olfactometer. For field testing, the plastic square carrying the formulation is held horizontally under the lid of the AgriSense trap, in the same position that a pheromone lure would be, using a screw.

The subject of a further assay is Lab reared female moths. The assay is described as follows: field wind tunnel trials. Format: in vivo. The note with it: trial 8, Yanco, 0.5% methomyl. How it is done: These are used to observe behavioural responses of moths around lures, and to record kill rates of different blends and formulations, in semi-natural conditions. Clear polythene is stretched around a series of steel hoops 1.2 m in diameter which are suspended from a horizontal pipe Flywire is placed over each end. The wind tunnels are hung just above ground level and oriented parallel to the prevailing wind. Lures (3 bottle tops containing 100-200 μl of the attractant under test) are placed on a plastic dinner plate in the upwind end and 20-50 moths are released into the downwind end about 1 h before sunset. Lab reared female moths produced under natural photoperiod are used. Behavioural responses are observed using night vision glasses. In the morning both live and dead moths are collected and dissected to determine from the presence of green dye whether they have fed on the lure.

The next assay concerns Helicoverpa spp. The assay is described as follows: field trapping trials with AgriSense traps. Format: in vivo. As to conditions: for Peak catch % of phero / Whole experiment Lure N: Downs. An excerpt:
For field tests of the attractiveness of different blends we use AgriSense pheromone traps of the canister type (Gregg and Wilson 1991). Traps are usually cleared three times weekly, and the catch sorted. Moths are sexed and the females dissected to determine mated status. We normally test 5 formulations at a time, replicated 4 times, so there are 4 rows of 5 traps, each row containing one replicate of each formulation. Traps are spaced 50 m apart and are rotated, within a row, between catch intervals. Experiments are analysed as Latin squares. Field trials at Cecil Plains were conducted in soybeans, cotton, chickpea, wheat, fallow land and sunflower, and at Kununurra and China, in cotton.
These trials have been done at different times, and in different areas, different crops and different weather conditions. In some cases the conditions have been less than optimal. Examples include the Twynam 1, 2 and 3 trials in the Ord River, where night temperatures were often too low for moth activity, and the last two Wamara trials in 2000 where moth numbers in the district were extremely low. Because of these differences it is not possible to directly compare the numbers of moths caught between trials. We have therefore expressed the results as a percentage of the pheromone traps run in the same experiments. This percentage has been calculated on the catch interval with the highest volatile catches. We do this because the residual life of some volatiles is short and some formulations probably lose attractiveness during the course of the trials, whereas the pheromone release rate remains relatively constant. PBE1 was also included in almost all of these trials, as a standard plant volatile blend. The unweighted average catch of PBE1, across all trials, was 5.8% of the pheromone catch. Though PBE1 and some other volatile formulations occasionally caught up to 15-33% of the corresponding pheromone catch, when this occurred the overall numbers of moths were low, so the results are statistically unreliable.

Another assay has as its system moths. The assay is described as follows: laboratory feeding studies with ingestible formulations. The class given is in vivo. The note with it: 1% toxicant in ingestible formulations. As to the method: To determine whether moths will feed on the ingestible formulations, and whether they die as a result, we place a single moth in a 1 litre plastic container which has 50 μl of the formulation as a single droplet in a beer bottle cap, on the bottom of the container. In some experiments laboratory-reared moths are used in a constant 25° C. reverse-cycle system. In others natural cycle laboratory moths are used in containers placed outdoors. Moths are observed at regular intervals and dead ones removed for dissection. At the end of the scotophase all surviving moths are removed and after a further hour are dissected.
In these studies small droplets (50-100 μl) were placed in a 1 litre container with the moths, so they spent the night in close proximity (within 10 cm) of the droplet.

Setting [1] is: single chemicals in Sirene formulations.
[2] abbreviates: single chemicals, 10% in canola oil, females, FIG. 5.
Setting [3] is: Wamara3 Soybean, 20 Feb-12 Mar 99.

In the case of `O=CCc1ccccc1` [phenylacetaldehyde], the “attractiveness in the olfactometer” value with H. armigera moths is listed as “significantly attractive”. In addition, the “optimum concentration in the olfactometer” value (shortened to “optimum concentration”) in the assay on H. armigera moths is “about 1%”. In addition, the “attraction in the olfactometer (statistical significance)” value (shortened to “attraction … (statistical significance)”) is reported as “confirmed” in the assay on H. armigera moths (setting [1]) and “statistically significant levels of attraction” in the assay on H. armigera moths (setting [2]). Further, the “% killed” value is reported as 33.3 b % in the assay on Lab reared female moths (attractant at 2%) and 25.6 b % in the assay with Lab reared female moths (attractant at 8%). The figures for the N killed in the assay with Lab reared female moths (attractant at 2%) and with Lab reared female moths (attractant at 8%) were 14 and 11, respectively. Moreover, the “Peak catch % of phero” value is reported as 0.4% in the assay on Helicoverpa spp. (Wamara1Soybean, 1-30 Jan 99); 1.1% in the assay on Helicoverpa spp. (Wamara2 Soybean, 13-19 Feb 99); 3.1% in the assay on Helicoverpa spp. (setting [3]). Further, the “Whole experiment Lure N” value was 10 with Helicoverpa spp. (Wamara1Soybean, 1-30 Jan 99); 5 in the assay with Helicoverpa spp. (Wamara2 Soybean, 13-19 Feb 99); 8 in the assay with Helicoverpa spp. (setting [3]). The “catch in field traps, in words” value in the assay with Helicoverpa spp. (field trapping trials) is recorded as “caught very few moths”. In the assay on Helicoverpa spp. (third direct comparison with PBE1), the “catch relative to the PBE1 catch” value was “less than a quarter”.

`CC(C)=CCC/C(C)=C/CO` [geraniol]: the “attraction … (statistical significance)” value in the assay on H. armigera moths (setting [2]) was “statistically significant levels of attraction”.

Take `CC/C=C\CCOC(=O)c1ccccc1O` [Z-3-hexenyl salicylate]: the results for the test % with H. armigera moths (2% concentration in Sirene) and in the assay on H. armigera moths (in canola oil) were 26.7% and 33.8%, respectively. In addition, the “attractiveness in the olfactometer” value with H. armigera moths is recorded as “significantly attractive on its own”. Also, the “attraction … (statistical significance)” value in the assay on H. armigera moths (setting [1]) is listed as “confirmed”; in the assay on H. armigera moths (setting [2]), “statistically significant levels of attraction”.

As for `CC/C=C\CCOC(C)=O` [Z-3-hexenyl acetate], the “attraction … (statistical significance)” value in the assay with H. armigera moths (setting [2]) is given as “statistically significant levels of attraction”.

Regarding `CC1=CCC2C(C1)C2(C)C` (stereo not shown) [Blend 3-carene, 3-carene], in the assay with H. armigera moths (setting [2]), the “attraction … (statistical significance)” value is on record as “statistically significant levels of attraction”.

Take `C=C(C)[C@H]1CC=C(C)CC1` [limonene]: in the assay on H. armigera moths, the “attractiveness in the olfactometer” value was “statistically significant”. Besides, in the assay with H. armigera moths (setting [2]), the “attraction … (statistical significance)” value is listed as “statistically significant levels of attraction”.

As for `OCCc1ccccc1` [2-phenylethanol], the test % worked out at 26.4% in the assay with H. armigera moths (2% concentration in Sirene) and 29% in the assay with H. armigera moths (in canola oil). For the same compound, the “attractiveness in the olfactometer” value in the assay on H. armigera moths is “significantly attractive”. Besides, the entries for the “attraction … (statistical significance)” value with H. armigera moths (setting [1]) and with H. armigera moths (setting [2]) were “confirmed” and “statistically significant levels of attraction”, respectively.

Consider `C=CCc1ccc(OC)c(OC)c1` [methyl eugenol], for which the “optimum concentration” value with H. armigera moths is “about 2%”.

Turning to `CNC(=O)ON=C(C)SC` [methomyl], the “% killed, summary of trials” value with moths is “killed all moths”.

Consider `CNC(=O)Oc1cccc2ccccc12` [carbaryl], for which the “% killed, summary of trials” value in the assay with moths is on record as 69-94%.

`OCc1ccccc1` [benzyl alcohol]: in the assay on H. armigera moths, the “optimum concentration” value is recorded as “about 1%”. The entries for the “attraction … (statistical significance)” value in the assay on H. armigera moths (setting [1]) and in the assay on H. armigera moths (setting [2]) were “confirmed” and “statistically significant levels of attraction”, respectively.
